Reference: patent publication US20100159093A1, “METHOD OF TREATING FOODSTUFF” (priority 2008, published 2010)

Tests used:
Type in all cases: cell-based
[1] = test system: anaerobic spores, such as C. tyrobutyricum; assay: Anaerobic spore count in raw milk under nitrogen gas; settings: 12.0° C., N1 environment (120 ml/min), Example 5, FIG. 5L
Procedure: With the device shown in FIG. 1, the effect of nitrogen gas on the natural microflora in raw milk (volume approximately 125 ml) was examined by replacing the air (control) in an open vessel (volume approximately 250 ml) at a constant temperature, with a flow-through of 100% nitrogen gas (purity 99.999%, manufacturer AGA) at two different flow-through rates: N1=120 ml/min, N2=40 ml/min.
The temperature of the raw milk in the sample bottles was adjusted by means of the thermostat (14) of the water bath to bring the temperature of the milk to 6.0° C., 7.0° C. or 12.0° C. The temperature variation in the vessel was less than ±0.1° C.
The effect of nitrogen gas on the growth of the microflora in a raw milk sample at 12.0° C. Two flow-through rates of the nitrogen gas were used in the study: (▴) 40 ml/min and ([…]) 120 ml/min. […] The following bacterial levels were determined in the samples:
FIG. 5A: Total bacteria count (p.m.y./ml) FIG. 5B: Total number of psychrotrophs (p.m.y./ml) FIG. 5C: Total number of proteolytic bacteria (p.m.y./ml) FIG. 5D: Total number of lipolytic bacteria (p.m.y./ml) FIG. 5E: Total number of bacteria producing phospholipase (p.m.y./ml). […]

[2] = test system: natural microflora in raw milk (total bacteria count); assay: Growth of the natural microflora (total bacteria count) in raw milk under nitrogen gas
Procedure: With the device shown in FIG. 1, the effect of nitrogen gas on the natural microflora in raw milk (volume approximately 125 ml) was examined by replacing the air (control) in an open vessel (volume approximately 250 ml) at a constant temperature, with a flow-through of 100% nitrogen gas (purity 99.999%, manufacturer AGA) at two different flow-through rates: N1=120 ml/min, N2=40 ml/min. The apparatus comprises a nitrogen source (1), which is connected by means of a flow channel (2) to two sample bottles (3 and 4). The device also comprises a bottle (5) which contains a reference sample. Filters (6a, 6b, 7a, 7b and 8a, 8b) are connected to the gas flow channels (2), which are made of silicon pipe/hose. The pore size of the filters is 0.2 μm. A flow meter is attached to the flow channels (2), in order to allow the rate at which the gas flows are to be adjusted. The sample bottles are placed in a water bath (10). […] and magnetic mixers (12) are used to mix the contents of the bottles. The water of the water bath (10) is cooled with a cooling coil (11) which is connected to a cooling unit (13), and the entire test apparatus is placed in a cold store, the temperature of which is 5° C. (except the nitrogen bottle). The water temperature of the water bath (10) is adjusted to a desired temperature with the help of an adjustable submersible thermostat (14). The temperature of the raw milk in the sample bottles was adjusted by means of the thermostat (14) of the water bath to bring the temperature of the milk to 6.0° C., 7.0° C. or 12.0° C. The temperature variation in the vessel was less than ±0.1° C. […] The effect of nitrogen gas on the growth of the microflora in a raw milk sample at 6.0° C. Two flow-through rates of the nitrogen gas were used in the study: (▴) 40 ml/min and ([…])120 ml/min. […] The following bacterial levels were determined in the samples: The effect of nitrogen gas on the growth of the microflora in a raw milk sample at 7.0° C. Two flow-through rates of the nitrogen gas were used in the study: (▴) 40 ml/min and ([…])120 ml/min. […] The following bacterial levels were determined in the samples: The effect of nitrogen gas on the growth of the microflora in a raw milk sample at 12.0° C. Two flow-through rates of the nitrogen gas were used in the study: (▴) 40 ml/min and ([…]) 120 ml/min. […] The following bacterial levels were determined in the samples: […]

[3] = test system: microaerobic/fermentative microbes (such as lactobacilli); assay: Growth of lactobacillus-type bacteria in raw milk under nitrogen gas; settings: 12.0° C., N1 environment (120 ml/min), Example 5, FIG. 5G
Procedure: With the device shown in FIG. 1, the effect of nitrogen gas on the natural microflora in raw milk (volume approximately 125 ml) was examined by replacing the air (control) in an open vessel (volume approximately 250 ml) at a constant temperature, with a flow-through of 100% nitrogen gas (purity 99.999%, manufacturer AGA) at two different flow-through rates: N1=120 ml/min, N2=40 ml/min. The temperature of the raw milk in the sample bottles was adjusted by means of the thermostat (14) of the water bath to bring the temperature of the milk to 6.0° C., 7.0° C. or 12.0° C. The temperature variation in the vessel was less than ±0.1° C. The effect of nitrogen gas on the growth of the microflora in a raw milk sample at 12.0° C. Two flow-through rates of the nitrogen gas were used in the study: (▴) 40 ml/min and ([…]) 120 ml/min. […] The following bacterial levels were determined in the samples: FIG. 5A: Total bacteria count (p.m.y./ml) FIG. 5B: Total number of psychrotrophs (p.m.y./ml) FIG. 5C: Total number of proteolytic bacteria (p.m.y./ml) FIG. 5D: Total number of lipolytic bacteria (p.m.y./ml) FIG. 5E: Total number of bacteria producing phospholipase (p.m.y./ml). […]

[4] = 6.0° C., N2 environment (40 ml/min)

N#N [nitrogen gas]
formation (sporulation) of anaerobic spores [1]: does not increase the formation (sporulation)
growth of the bacteria ([2]; 6.0° C., N1 environment (120 ml/min), measurement period of 11 days): totally prevents the growth of the bacteria
growth of the microbes [2, 4]: capable of preventing the growth of the microbes for 7 days
increase of the microbe level during a period of 3 days [2, 4]: less than 1 log-unit
total growth/the growth of the microbes ([2]; 7.0° C., N1 environment (120 ml/min), prevents = log increases by less than one unit in 3 days): still prevents
growth of the total microbial count ([2]; 7.0° C., N2 environment (40 ml/min)): delays the growth of the total microbial count, although it cannot totally prevent the growth
growth of the total microbial count ([2]; 12.0° C., N1 environment (120 ml/min), Example 4 sample): still prevents or nearly prevents the growth of the total microbial count
growth of the total number of the microbes ([2]; 12.0° C., N1 environment (120 ml/min), Example 5 sample): substantially delay the growth of the total number of the microbes
growth of microaerobic/fermentative microbes (such as lactobacilli) [3]: able to delay the growth
